Source: US6486128B1, “Method of using emamectin to treat fish parasites” (Schering-Plough Veterinary Corporation, priority 1999, dated 2002)

How the values were obtained:
[1] = Daily observation of fish for behavior, adverse drug reactions and mortalities (three studies); assay type: in vivo, Atlantic salmon, Salmo salar L.; details: at the dosage levels and dosage schedule of the invention
Experimental: Fish were held in replicate groups in plastic fiber tanks, each with a volume of 0.54 m^3. Each tank was supplied with natural sea water at ambient temperature (7-14° C.) and salinity (30-35 ppt), at flow rates of approximately 18 l. min^−1. The tanks were fitted with mesh screens over the water outlet to retain uneaten fish pellets. Fish were observed daily for behavior and adverse drug reactions. Fish mortalities and the occurrence of gross sea lice damage were also recorded.

parasites = experiment: Sustained efficacy after emamectin treatment; assay type: in vivo

4″-deoxy-4″ epimethylaminoavermectin B1 [emamectin]
toxicity to fish populations [1]: not toxic
sustained efficacy after treatment (parasites): 8 to 10 weeks
